From publication PMC12693633, “Synthesis and Evaluation of Radiogallium-Labeled Peptide Probes for In Vivo Imaging of Legumain Activity” (Molecules, 2025)
Like-named read-outs stand apart in the source and are kept apart here. Square brackets hold non-standard residues; d marks the D form. Peptide text beside a SMILES is read from it. * marks the point of attachment. NOTA(2S-Bn(4-NHCS)) = O=C(O)CN1CCN(CC(=O)O)C[C@H](Cc2ccc(NC(=S)*)cc2)N(CC(=O)O)CC1; Cit = NC(=O)NCCC[C@H](N)C(=O)O; Ahx = NCCCCCC(=O)O

Test: In vivo biodistribution in HCT116 tumor-bearing mice
Conditions: female, mouse, iv, total radioactivity, mean (SD), n = 5; for tissue to tissue ratio at 1 h: BALB/c nu/nu, 7.4 kBq, HCT116 tumor-bearing mice, 1 h after i.v. injection; for tissue uptake at 1 h / tissue uptake dose at 1 h: 7.4 kBq i.v. (tail vein), 1 h after injection, gamma counter; for tissue uptake dose at 1 h: stomach (whole organ), whole organ
Protocol: Animal experiments were conducted in accordance with our institutional guidelines and were approved by the Nagasaki University Animal Care Committee and the Kanazawa University Animal Care Committee. The animal experimental protocols were approved by the Committee on Animal Experimentation of Nagasaki University and Kanazawa University. BALB/c nu/nu mice (female; 4 weeks old) were supplied by Japan SLC (Shizuoka, Japan). The mice were maintained in a room at a constant ambient temperature and a 12/12 h light/dark cycle and were given free access to food and water. Mice were subcutaneously injected on their right shoulders with approximately 1.0 × 10^7 HCT116 cells. The tumors were allowed to reach 300–500 mm^3 (1–2 weeks after inoculation) before biodistribution studies were performed.
Each [^67Ga]Ga-NOTA-peptide (7.4 kBq) was administered to mice via tail vein injection in 100 μL of saline. The mice were euthanized 1 h after injection, and their organs were harvested. The tissues were weighed and the radioactivity in each sample was measured using an automated gamma counter (n = 5). The results are expressed as the percent injected dose per gram of tissue (%ID/g) or as %ID.

[1] = tumor/blood, read-out: Tumor/Blood ratio
[2] = tumor/muscle, read-out: Tumor/Muscle ratio
[3] = blood, HCT116 tumor-bearing BALB/c nu/nu mice, read-out: Biodistribution, Blood
[4] = brain, HCT116 tumor-bearing BALB/c nu/nu mice, read-out: Biodistribution, Brain
[5] = heart, HCT116 tumor-bearing BALB/c nu/nu mice, read-out: Biodistribution, Heart
[6] = intestine, HCT116 tumor-bearing BALB/c nu/nu mice, read-out: Biodistribution, Intestine
[7] = HCT116 tumor, BALB/c nu/nu mice, read-out: Biodistribution, Tumor
[8] = kidney, HCT116 tumor-bearing BALB/c nu/nu mice, read-out: Biodistribution, Kidney
[9] = liver, HCT116 tumor-bearing BALB/c nu/nu mice, read-out: Biodistribution, Liver
[10] = lung, HCT116 tumor-bearing BALB/c nu/nu mice, read-out: Biodistribution, Lung
[11] = muscle, HCT116 tumor-bearing BALB/c nu/nu mice, read-out: Biodistribution, Muscle
[12] = pancreas, HCT116 tumor-bearing BALB/c nu/nu mice, read-out: Biodistribution, Pancreas
[13] = spleen, HCT116 tumor-bearing BALB/c nu/nu mice, read-out: Biodistribution, Spleen
[14] = HCT116 tumor-bearing BALB/c nu/nu mice

tissue to tissue ratio at 1 h [1]	tissue to tissue ratio at 1 h [2]	tissue uptake at 1 h [3] [%ID/g]	tissue uptake at 1 h [4] [%ID/g]	tissue uptake at 1 h [5] [%ID/g]	tissue uptake at 1 h [6] [%ID/g]	tissue uptake at 1 h [7] [%ID/g]	tissue uptake at 1 h [8] [%ID/g]	tissue uptake at 1 h [9] [%ID/g]	tissue uptake at 1 h [10] [%ID/g]	tissue uptake at 1 h [11] [%ID/g]	tissue uptake at 1 h [12] [%ID/g]	tissue uptake at 1 h [13] [%ID/g]	tissue uptake dose at 1 h [14] [%ID]	SMILES
8.29 ± 3.41	3.54	0.28	0.03	0.53	0.44	1.83 ± 0.32	129	19.1	0.93	0.54	0.31	3.94	0.18	CC(=O)NCCCCCC(=O)N[C@H](CCC(=O)O)C(=O)N[C@H](CCC(=O)O)C(=O)N[C@H](CCC(=O)O)C(=O)N[C@H](CCC(=O)O)C(=O)N[C@H](CCC(=O)O)C(=O)N[C@H](CCC(=O)O)C(=O)N[C@H](CCC(=O)O)C(=O)N[C@H](CCC(=O)O)C(=O)N[C@H](CCC(=O)O)C(=O)NCCCCCC(=O)N1CCC[C@H]1C(=O)N[C@@H](C)C(=O)N[C@@H](C)C(=O)N[C@@H](CC(N)=O)C(=O)N[C@H](C(=O)NCC(=O)N[C@H](CCCNC(=N)N)C(=O)N[C@H](CCCNC(=N)N)C(=O)N[C@H](CCCNC(=N)N)C(=O)N[C@H](CCCNC(=N)N)C(=O)N[C@H](CCCNC(=N)N)C(=O)N[C@H](CCCNC(=N)N)C(=O)N[C@H](CCCNC(=N)N)C(=O)N[C@H](CCCNC(=N)N)C(=O)N[C@H](CCCNC(=N)N)C(=O)NCCCCCC(=O)N[C@H](CCCCNC(=S)Nc1ccc(C[C@H]2CN(CC(=O)O)CCN(CC(=O)O)CCN2CC(=O)O)cc1)C(N)=O)C(C)C [[^67Ga]Ga-NOTA-LCP-1, metal not drawn] (Ac-[Ahx][dE][dE][dE][dE][dE][dE][dE][dE][dE][Ahx]PAANVG[dR][dR][dR][dR][dR][dR][dR][dR][dR][Ahx][dK](NOTA(2S-Bn(4-NHCS)))-NH2)
2.2 ± 0.69	2.47	0.46	0.04	0.44	0.63	0.97 ± 0.25	96.6	17.2	1.58	0.4	0.38	4.37	0.19	CC(=O)NCCCCCC(=O)N[C@H](CCC(=O)O)C(=O)N[C@H](CCC(=O)O)C(=O)N[C@H](CCC(=O)O)C(=O)N[C@H](CCC(=O)O)C(=O)NCCCCCC(=O)N1CCC[C@H]1C(=O)N[C@@H](C)C(=O)N[C@@H](C)C(=O)N[C@@H](CC(N)=O)C(=O)N[C@H](C(=O)NCC(=O)N[C@H](CCCNC(=N)N)C(=O)N[C@H](CCCNC(=N)N)C(=O)N[C@H](CCCNC(=N)N)C(=O)N[C@H](CCCNC(=N)N)C(=O)N[C@H](CCCNC(=N)N)C(=O)NCCCCCC(=O)N[C@H](CCCCNC(=S)Nc1ccc(C[C@H]2CN(CC(=O)O)CCN(CC(=O)O)CCN2CC(=O)O)cc1)C(N)=O)C(C)C [[^67Ga]Ga-NOTA-LCP-3, metal not drawn] (Ac-[Ahx][dE][dE][dE][dE][Ahx]PAANVG[dR][dR][dR][dR][dR][Ahx][dK](NOTA(2S-Bn(4-NHCS)))-NH2)
4.39 ± 2.07	1.91	0.45	0.04	0.43	0.53	1.8 ± 0.51	122	17.4	1.08	0.96	0.64	3.15	0.22	CC(=O)NCCCCCC(=O)N[C@H](CCC(=O)O)C(=O)N[C@H](CCC(=O)O)C(=O)N[C@H](CCC(=O)O)C(=O)N[C@H](CCC(=O)O)C(=O)N[C@H](CCC(=O)O)C(=O)N[C@H](CCC(=O)O)C(=O)N[C@H](CCC(=O)O)C(=O)N[C@H](CCC(=O)O)C(=O)N[C@H](CCC(=O)O)C(=O)NCCCCCC(=O)N1CCC[C@H]1C(=O)N[C@@H](C)C(=O)N[C@@H](C)C(=O)N[C@@H](CCCNC(N)=O)C(=O)N[C@H](C(=O)NCC(=O)N[C@H](CCCNC(=N)N)C(=O)N[C@H](CCCNC(=N)N)C(=O)N[C@H](CCCNC(=N)N)C(=O)N[C@H](CCCNC(=N)N)C(=O)N[C@H](CCCNC(=N)N)C(=O)N[C@H](CCCNC(=N)N)C(=O)N[C@H](CCCNC(=N)N)C(=O)N[C@H](CCCNC(=N)N)C(=O)N[C@H](CCCNC(=N)N)C(=O)NCCCCCC(=O)N[C@H](CCCCNC(=S)Nc1ccc(C[C@H]2CN(CC(=O)O)CCN(CC(=O)O)CCN2CC(=O)O)cc1)C(N)=O)C(C)C [[^67Ga]Ga-NOTA-NCP-1, metal not drawn] (Ac-[Ahx][dE][dE][dE][dE][dE][dE][dE][dE][dE][Ahx]PAA[Cit]VG[dR][dR][dR][dR][dR][dR][dR][dR][dR][Ahx][dK](NOTA(2S-Bn(4-NHCS)))-NH2)
2.54	2.7	0.41	0.04	0.56	0.54	0.95	73.3	20.8	1.36	0.43	0.46	5.38	0.12	CC(=O)NCCCCCC(=O)N[C@H](CCC(=O)O)C(=O)N[C@H](CCC(=O)O)C(=O)N[C@H](CCC(=O)O)C(=O)N[C@H](CCC(=O)O)C(=O)NCCCCCC(=O)N1CCC[C@H]1C(=O)N[C@@H](C)C(=O)N[C@@H](C)C(=O)N[C@@H](CCCNC(N)=O)C(=O)N[C@H](C(=O)NCC(=O)N[C@H](CCCNC(=N)N)C(=O)N[C@H](CCCNC(=N)N)C(=O)N[C@H](CCCNC(=N)N)C(=O)N[C@H](CCCNC(=N)N)C(=O)N[C@H](CCCNC(=N)N)C(=O)NCCCCCC(=O)N[C@H](CCCCNC(=S)Nc1ccc(C[C@H]2CN(CC(=O)O)CCN(CC(=O)O)CCN2CC(=O)O)cc1)C(N)=O)C(C)C [[^67Ga]Ga-NOTA-NCP-3, metal not drawn] (Ac-[Ahx][dE][dE][dE][dE][Ahx]PAA[Cit]VG[dR][dR][dR][dR][dR][Ahx][dK](NOTA(2S-Bn(4-NHCS)))-NH2)
